In US11180522B2, “Disulfide-linked reversible terminators” (Centrillion Technology Holdings Corporation, priority 2015, dated 2021):

How the values were obtained:
Bst polymerase [1] = details: incubation with 100 mM TCEP pH9.0, 65° C., 30 minutes
Method: Primer extension: For reactions with CENT1 enzyme, the enzyme was boiled for 5 minutes at 95° C. before use. 40 uL of hybridized beads were resuspended in 22.5 uL of reaction mixture (40 mM Tris-HCl pH8.8, 20 mM ammonium sulfate, 20 mM KCl, 0.2% Triton X-100, 2 mM MgSO4, 1.5 ug CENT1). Reactions were pre-warmed to 45° C. for one minute before adding 2.5 uL of 20 uM nucleotide (for a final concentration of 2 uM). After one minute of incorporation, reactions were quenched with 40 μL RB. Beads were washed with 40 μL RB and either resuspended in a new reaction mixture for further incorporation events or SP_T was eluted with 0.1 N NaOH for 10 minutes at room temperature then neutralized with 1.5 uL Tris-HCl pH8.0. For reactions with Bst large fragment (NEB), 40 uL of hybridized beads were resuspended in 22.5 uL of reaction mixture (40 mM Tris-HCl pH8.8, 20 mM ammonium sulfate, 20 mM KCl, 0.2% Triton X-100, 2 mM MgSO4, 40 U Bst). Reactions were pre-warmed to 37° C. for one minute before adding 2.5 uL of 1 mM dNTPs (NEB) (for a final concentration of 100 uM). After five minutes at 37° C., reactions were quenched with 40 μL RB. Beads were washed with 40 μL RB and SP_T was eluted with 0.1N NaOH for 10 minutes at room temperature then neutralized with 1.5 uL Tris-HCl pH8.0.
Cleavage of Reversible Terminators: After incorporation of reversible terminators, beads were resuspended in 100 mM TCEP pH9.0 (Gold Bio) and incubated at 65° C. for 30 minutes before quenching with 100 μL RB. Beads were washed with 40 μL RB and either resuspended in a new reaction mixture for further incorporation events or SP_T was eluted with 0.1N NaOH for 10 minutes at room temperature then neutralized with 1.5 uL Tris-HCl pH8.0.

DNA polymerase CENT1 = assay: Primer extension assay with DNA polymerase CENT1; type: biochemical; details: 2 uM nucleotide, 45° C., one minute, denaturing PAGE
Method: (§1) Oligo Preparation: Oligos were purchased from IDT and stored at 500 uM in nuclease-free water: A biotinylated target sequence (Biot_Primer1_Capt, 5′-/5Biosg/[…] TTTCAG-3′ (SEQ ID NO: 1)) and a sequencing primer (SP_T, 5′-[…]-3′ (SEQ ID NO: 2)). 8 nmol of the biotinylated template sequence was conjugated to streptavidin-coated magnetic beads (T1 Dynabeads, Invitrogen) for one hour at room temperature in a solution containing 1M NaCl, 10 mM Tris-HCl pH7.5, 1 mM EDTA. Beads were washed three times with wash buffer at 60° C. (0.64×SSC, 0.016% SDS) to remove unbound primer and stored in 800 μL reaction binding buffer, RB, (1M NaCl, 25 mM Tris-HCl pH7.5, 0.01% TWEEN20) at 4° C. To hybridize the sequencing primer to the template, 100 uL of conjugated beads were incubated with a saturating amount of SP_T (2.5 nmol) in 200 μL RB at 70° C. for five minutes, 55° C. for 15 minutes, then 25° C. for 5 minutes. Hybridized beads were stored in 360 uL RB at room temperature.

[2] = system: enhanced DNA polymerase (EDP); assay: Primer extension assay with enhanced DNA polymerase (EDP); type: biochemical; details: denaturing PAGE, FIG. 12
Method: as §1

Bst polymerase [3] = details: "runaway" reaction with Bst polymerase, 100 uM dNTPs, 37° C., before TCEP treatment
Method: For reactions with Bst large fragment (NEB), 40 uL of hybridized beads were resuspended in 22.5 uL of reaction mixture (40 mM Tris-HCl pH8.8, 20 mM ammonium sulfate, 20 mM KCl, 0.2% Triton X-100, 2 mM MgSO4, 40 U Bst). Reactions were pre-warmed to 37° C. for one minute before adding 2.5 uL of 1 mM dNTPs (NEB) (for a final concentration of 100 uM). After five minutes at 37° C., reactions were quenched with 40 μL RB. Beads were washed with 40 μL RB and SP_T was eluted with 0.1N NaOH for 10 minutes at room temperature then neutralized with 1.5 uL Tris-HCl pH8.0.
Denaturing PAGE: An equal volume of 2×TBE-Urea Sample Buffer (Novex, Thermo Fisher) was added to samples before heat-denaturation for five minutes at 85° C. 10 μL sample and a 10 bp ladder (TrackIt, Invitrogen) on a 15% TBE-Urea PAGE gel (Novex, Thermo Fisher) in 1×TBE for two hours at 160V. Gels were imaged for fluorescence before staining and again after staining with SYBR Gold (Thermo) on an AlphaImager 3400.

## CC(C)(C)OC(=O)NCCSSCCOC(=O)NCC#Cc1cn([C@H]2CC(OCN=[N+]=[N-])[C@@H](COP(=O)(O)OP(=O)(O)OP(=O)(O)O)O2)c(=O)[nH]c1=O (stereo partly drawn) [compound 31]
Bst polymerase [1]
  De-blocking (removal of 3′-azidomethyl cap, extension resumes): De-blocking was accomplished
DNA polymerase CENT1
  Primer extension (incorporation of the terminator into the growing DNA chain) catalyzed by CENT1: extension was catalyzed
[2]
  Primer extension (incorporation of the terminator) catalyzed by EDP: extension was catalyzed

## 3′-O-azidomethyl-5-(Alexa530-dithiolinker-carbamate)-dUTP [compound 34]
Bst polymerase [1]
  De-blocking (removal of 3′-azidomethyl cap, extension resumes): De-blocking was accomplished
DNA polymerase CENT1
  Primer extension (incorporation of the terminator into the growing DNA chain) catalyzed by CENT1: extension was catalyzed
Bst polymerase [3]
  Blocking of further extension after terminator incorporation: Blocking of further extension after terminator incorporation is observed

## [N-]=[N+]=NCOC1C[C@H](n2cc(C#CCNC(=O)OCCSSCCNC(=O)c3ccc(-c4c5ccc(=O)cc-5oc5cc(O)ccc45)c(C(=O)O)c3)c(=O)[nH]c2=O)O[C@@H]1COP(=O)(O)OP(=O)(O)OP(=O)(O)O (stereo partly drawn) [compound 33, 3′-O-azidomethyl-5-(Fluorescein-dithiolinker-cabamate)-2′-deoxyuridinetriphosphate]
Bst polymerase [1]
  De-blocking (removal of 3′-azidomethyl cap, extension resumes): De-blocking was accomplished
DNA polymerase CENT1
  Primer extension (incorporation of the terminator into the growing DNA chain) catalyzed by CENT1: extension was catalyzed
Bst polymerase [3]
  Blocking of further extension after terminator incorporation: Blocking of further extension after terminator incorporation is observed
